Assay results published in ChEMBL document CHEMBL3507680, “University of Dundee, Gates Library screen for HepG2 cell viability”.

Assay: Human HepG2 cell viability assay in 384 well format
Format: toxicity, cell-based
Parameters: dose 125 nL, time 70.5 hour; concentration not given beside the values
Settings: HepG2 cells, read-out: Inhibition

| SMILES | cytotoxicity at 70.5 h |
| --- | --- |
| Cn1ncc(N2CCOCC2)c(Cl)c1=O | -7.54% |
| O=C(NS(=O)(=O)c1cccc(C(F)(F)F)c1)c1cscn1 | -10.3% |
| CCC(CC)(CNC(=O)OC(C)(C)C)NC(=O)C1CC1 | 16.7% |
| COc1cc(CNC2CCCN(c3cccnn3)C2)cc2c1OCO2 (stereo not drawn) | -3.66% |
| Cc1cnn(CCNC(C)C(=O)Nc2ccc(Cl)cn2)c1 (stereo not drawn) | -9.14% |
| Cc1cnn(CCNCC(=O)Nc2ccc(Cl)cn2)c1 | -0.0591% |
| Cc1cc(CNC(=O)NCC(O)c2cccc(C(F)(F)F)c2)no1 (stereo not drawn) | 1.91% |
| COCCNC(=O)NC(c1ccccc1)c1ccccc1OC (stereo not drawn) | -3.63% |
| CSc1ccc(NCC(=O)NCC2CC2)cc1F | -3.73% |
| COC(=O)c1cc(NC2CCN(CC(F)(F)F)C2=O)ccc1C (stereo not drawn) | -1.18% |
| CC(=O)N(Cc1ncc(C)o1)C1CCN(Cc2cnc(C)s2)C1 (stereo not drawn) | -6.82% |
| CN(C)C(CNC(=O)NCCS(C)(=O)=O)c1ccco1 (stereo not drawn) | -4.23% |
| CC(=O)N(Cc1ncc(C)o1)C1CCN(CCn2cccn2)C1 (stereo not drawn) | 9.96% |
| CCN(C(=O)CN1CCn2c(C)nnc2C1)C1=CCCCC1 | -17% |
| CCN(C(=O)CN1CCn2c(nnc2C2CC2)C1)C1=CCCCC1 | -14.8% |
| O=C(NCc1cccnc1-n1cncn1)c1ccncc1 | -4.72% |
| O=S(=O)(c1c(F)cccc1F)N1CCCC1c1nnc2n1CCCCC2 (stereo not drawn) | -12.1% |
| O=C(CCn1ccccc1=O)Nc1ccc(C(=O)O)cc1 | -4.88% |
| Cn1nnnc1SC1CCCN(c2cccc(F)c2)C1=O (stereo not drawn) | 19.4% |
| CCc1nnc(SC2CCCN(c3cccc(F)c3)C2=O)n1C (stereo not drawn) | -8.7% |
| CN1CCN(CC(NCc2cccc(O)c2)c2ccccc2)CC1 (stereo not drawn) | -5.45% |
| CCn1cc(NC(=O)C2CCN(Cc3ccccc3)CC2)cn1 | 2.21% |
| COc1ccc2oc(C(C)NC(=O)NCC(C)(C)C(N)=O)c(C)c2c1 (stereo not drawn) | 23.4% |
| CCCN(C(=O)CN1CCn2c(nnc2C2CC2)C1)C1=CCCCC1 | -13.5% |

| SMILES | cytotoxicity at 70.5 h |
| --- | --- |
| Cc1cc(C)n(-c2cncc(NCCC(=O)NC(C)C)n2)n1 | -10.2% |
| Cc1cccc2nc(CNC(=O)N3CCC(OCC4CC4)CC3)cn12 | 24.4% |
| O=C(Nc1nc(-c2ccccc2)ns1)N1CC[C@H](O)C1 | -9.25% |
| CNC(=O)CC1CCN(C(=O)NCc2cn3c(C)cccc3n2)CC1 | -14.3% |
| FC(F)(F)C1CCc2nnc(CNCc3cccs3)n2C1 (stereo not drawn) | 24.7% |
| CCn1cc(NC(=O)C2CCN(Cc3nc(C)c(C)s3)CC2)cn1 | -5.47% |
| O=C(c1cn(-c2cccc(Cl)c2F)nn1)N1CCCSCC1 | -13.2% |
| Cc1cnc(CN(C)Cc2cc3c(cc2OC(F)F)OCO3)o1 | 0.766% |
| Cc1cc(CN(C)S(=O)(=O)N2CCCC2c2ccc(C)o2)no1 (stereo not drawn) | -9.33% |
| CN1CCN(CC(NCc2ccc(F)cc2)c2ccccc2)CC1 (stereo not drawn) | 17.2% |
| Cc1cnc(CN(C)C2CCN(Cc3ccc(Cl)s3)C2)o1 (stereo not drawn) | -15.5% |
| Cc1cnc(CN(C)C2CCN(Cc3sc(C)nc3C)C2)o1 (stereo not drawn) | 29.7% |
| CN1CCN(CC(NCc2ccc(F)c(F)c2)c2ccccc2)CC1 (stereo not drawn) | 5.13% |
| Cc1cnc(CN(C)C2CCN(Cc3cnc(C)s3)C2)o1 (stereo not drawn) | -8.23% |
| N#Cc1cccc(CNC(=O)C2=NN(c3ccccc3)C(=O)CN2)c1 | 9.97% |
| N#Cc1ccc(CNC(=O)C2=NN(c3ccccc3)C(=O)CN2)cc1 | -7.68% |
| O=C(CNc1cccc2c1CCCC2)Nc1ccccc1Br | 2.61% |
| Cc1nn(C)c(N(C)C)c1CNCc1cccc(Cn2cccn2)c1 | 9.51% |
| Cc1nn(C)c(N(C)C)c1CNCc1cccc(Br)c1 | -5.91% |
| Cc1cccn2c(=O)cc(CN3CCCC3Cn3cncn3)nc12 (stereo not drawn) | -5.2% |
| CN1CC(C(=O)NC(C)(C)CNC(=O)OC(C)(C)C)CC1=O (stereo not drawn) | 9.2% |
| Cc1cnn(CC2CCCN2Cc2cc(=O)n3c(C)csc3n2)c1 (stereo not drawn) | -4.63% |
| Cc1nc(CN2CCN(C(=O)Cc3cccc(Cl)c3)CC2)no1 | -5.05% |
| CC(C)Oc1ccc(C(=O)Cn2cnnc2[S+](C)[O-])cc1 (stereo not drawn) | -7.07% |

| SMILES | cytotoxicity at 70.5 h |
| --- | --- |
| C[S+]([O-])c1nncn1CC(=O)c1ccc(OC(F)F)cc1 (stereo not drawn) | -2.01% |
| O=S(=O)(c1ccc(F)cc1)N1CCN(CCCn2ccnc2)CC1 | -1.51% |
| CCN1CCN(Cc2nc(C)no2)CC1 | 12.7% |
| C[S+]([O-])c1nncn1CC(=O)c1cccc(C(F)(F)F)c1 (stereo not drawn) | -1.93% |
| CCN1CC(C(=O)NC(C)(C)CC)CC1=O (stereo not drawn) | -3.27% |
| CC(C)(C)OC(=O)NCC1CCCCN1Cc1ccccn1 (stereo not drawn) | 1.05% |
| COC(C(=O)N1CCN(Cc2noc(C)n2)CC1)c1ccccc1 (stereo not drawn) | -3.29% |
| Cc1cccn2c(=O)cc(CN3CCCC3Cn3cccn3)nc12 (stereo not drawn) | -1.74% |
| Cc1ccc(S(=O)(=O)N2CCN(CCCn3ccnc3)CC2)cc1 | -1.75% |
| Cc1cnc(CN2CCC(N(C)Cc3nnc(C)n3C)C2)cn1 (stereo not drawn) | -0.164% |
| CCCN1CCC(NCc2ccncc2)CC1 | -5.69% |
| Cc1ccc(NC(=O)c2nc(N3CCCCC3)ncc2Cl)cc1I | -7.45% |
| COc1cc(CN(C)C(=O)NCc2cccnc2OC)ccc1SC | -0.299% |
| Cc1ccc(C(=O)NCCCN(C)S(C)(=O)=O)c(=O)[nH]1 | -5.2% |
| O=C(c1cc2c([nH]c1=O)CCC2)N1CCCCCC1c1ccncc1 (stereo not drawn) | -6.24% |
| COc1cc(CN(C)C(=O)NCc2ccccn2)ccc1SC | 15.9% |
| COc1cc(CN(C)C(=O)NC2CC2)ccc1SC | -3.48% |
| COc1cc(CN(C)C(=O)NCC(=O)NC(C)C)ccc1SC | -1.54% |
| CSc1cc2c(cc1NC(=O)NCC(=O)N(C)C)OCCO2 | 0.952% |
| NCC1(c2cccc(C(F)(F)F)c2)CCCCC1 | -4.79% |
| Cc1cc(CN2CCc3nn(C)c(=O)cc3C2)no1 | -2.94% |
| CCS(=O)(=O)N1CCCC(c2nc3ccccc3n2C(C)C)C1 (stereo not drawn) | -3.94% |
| CC(CNC(=O)N1CCN(Cc2ccon2)CC1)Cc1cccs1 (stereo not drawn) | -2.44% |
| CC(=O)N(C)C1CCN(C(=O)NCC(C)Cc2cccs2)CC1 (stereo not drawn) | -2.57% |

| SMILES | cytotoxicity at 70.5 h |
| --- | --- |
| CC(C)(C)NC(=O)Cn1cc(C(N)=O)c(-c2ccccc2)n1 | -3.41% |
| CN1CCC(N(C)C(=O)CCc2ccc(F)c(F)c2)C1=O (stereo not drawn) | -6.34% |
| Oc1ncccc1-c1nc(-c2cccc(CN3CCOCC3)c2)no1 | -15.1% |
| Cc1cnc(-c2nc(-c3cccc(CN4CCOCC4)c3)no2)cn1 | -4.86% |
| Cc1n[nH]c(C)c1NC(=O)CN(CC(O)c1ccc(F)cc1)C1CC1 (stereo not drawn) | -3.36% |
| Cc1cc(NCC2(O)CCOCC2)nc2ccccc12 | -8.29% |
| O=C(c1ccc2[nH]ccc2c1)N1CCCCC1c1nc[nH]n1 (stereo not drawn) | -5.67% |
| CC(C)(CNc1cc(F)ccc1F)S(C)(=O)=O | 0.249% |
| CSC1(CNc2ccc(Br)cn2)CCOCC1 | -2.33% |
| CN(C)C1(CNc2ncc(Br)cn2)CCOCC1 | -10.2% |
| O=C(c1ccc(F)c(F)c1)N1CCCCC1c1nc[nH]n1 (stereo not drawn) | -6.52% |
| CC(=O)N1CCC(CCNC(C)c2cc(C)cc(C)c2)CC1 (stereo not drawn) | 3.75% |
| CC(=O)N1CCC(CCNC(C)c2cc(F)cc(F)c2)CC1 (stereo not drawn) | -3.81% |
| Cc1cncc(C(=O)N2CCCCC2c2nc[nH]n2)c1 (stereo not drawn) | -4.36% |
| CC(CCSc1ccccc1)N1CCCN(C(N)=O)CC1 (stereo not drawn) | 28.8% |
| Cc1n[nH]c(C2CN(C(=O)c3ccn(C)c(=O)c3)CCO2)n1 (stereo not drawn) | 31.8% |
| O=C(Nc1nncs1)N(Cc1cccc(F)c1)C1CC1 | -5.56% |
| Cc1cc2c(o1)CC(C)(C)CC2NC(=O)CNC(=O)C1CC1 (stereo not drawn) | -2.04% |
| COc1cccc(CN(C(=O)NC2CC2)C2CCC(O)CC2)c1 (stereo not drawn) | -6.74% |
| CCN(C(=O)c1cc(C)nc2ccccc12)C1CC(=O)NC1=O (stereo not drawn) | -1.78% |
| O=C(c1ccncc1)N1CCn2c(nnc2-c2ccccc2)C1 | -6.68% |
| O=C(c1[nH]nc(C2CC2)c1Cl)N1CCN(S(=O)(=O)c2ccccc2)CC1 | 18.5% |
| O=C(Nc1ccnc2ccnn12)c1ccc(N2CCC(O)CC2)cc1 | 6.12% |
| CCC(NC(=O)NCc1cc(Cl)ccc1OC)c1noc(C)n1 (stereo not drawn) | 16% |

| SMILES | cytotoxicity at 70.5 h |
| --- | --- |
| CCC(NC(=O)Nc1ccc(OC)c(C)c1)c1noc(C)n1 (stereo not drawn) | 4.08% |
| O=C(c1ncoc1C1CCCO1)N1CCC2(CCCCC2)CC1 (stereo not drawn) | -3.26% |
| O=C(Nc1cccn(Cc2ccccc2)c1=O)c1ccncc1F | 14.1% |
| O=C(c1[nH]nc(C2CC2)c1Cl)N1CCN(C2CC2)CC1 | 0.431% |
| CC(=O)NC(c1cc(F)ccc1F)C1CC1 (stereo not drawn) | -3.82% |
| Cc1nn(C)c(C)c1OCC(=O)N1CCCCC1 | -2.11% |
| COCCN(C)c1ccc(NCc2ccsc2)nc1 | -10.2% |
| Cc1cccc(C(=O)N2CCN(CCOC(C)C)CC2)n1 | -6.81% |
| CC(C)c1nc2c(n1C)CCN(CCCc1nc3ccccc3o1)C2 | -0.617% |
| CN(Cc1nccn1C)S(=O)(=O)c1cccc(C#N)c1 | -1.58% |
| CNC(=O)c1ccc(=O)n(Cc2csc(C(C)(C)C)n2)c1 | -18.4% |
| Cc1nc(C2(NCc3cccc(F)c3F)CCCCC2)no1 | -6.93% |
| COCC(C)(C)NS(=O)(=O)C1CS(=O)(=O)c2ccccc21 (stereo not drawn) | -17.4% |
| CCSc1ccc(NC(=O)NC(C)c2c(C)nn(C)c2C)cn1 (stereo not drawn) | -13.5% |
| CC(C)c1nc2c(n1C)CCN(CCS(=O)(=O)c1ccccc1)C2 | -12.4% |
| Cc1cnn(C2CCCN(C(=O)c3c(C)oc4nc[nH]c(=O)c34)C2)c1 (stereo not drawn) | -9.75% |
| Cc1oc2nc[nH]c(=O)c2c1C(=O)N1CCCC(n2cccn2)C1 (stereo not drawn) | -4.01% |
| CCS(=O)(=O)N1CCC(CSc2ccccc2)C1 (stereo not drawn) | -11.1% |
| Cn1cc(Br)cc1C(=O)NC1(C#N)CC1 | 15.5% |
| Cc1ccccc1C1CN(c2cnn(C)c(=O)c2Cl)CCO1 (stereo not drawn) | -1.35% |
| Cc1cccc(CNC2(CCO)CCOCC2)c1C | -2.52% |
| O=C(NC1CCCN(c2ccccc2F)C1)c1ccon1 (stereo not drawn) | -9.69% |
